Results taken from patent publication US8580975B2, “Synthesis of macrocyclic cancer chemotherapy agents and methods of use” (Purdue Research Foundation, priority 2008, dated 2013).

Legend:
[1] = tested on: P388 murine leukemia cells; assay: cell proliferation assay; assay type: cell-based
[2] = tested on: P388 murine leukemia cells; settings: background, natural peloruside A; cited from earlier work
[3] = Mus musculus, P388 murine leukemia cells

Row | Compound | IC50 [1, 3] | IC50 ([1]; P388 murine leukemia cells) | also measured
1 | CC[C@H](/C=C(/C)[C@@H]1C[C@@H](OC)C[C@H](O)C(C)(C)[C@@]2(O)O[C@@H](C[C@@H](OC)CC(=O)O1)C[C@@H](OC)[C@H]2O)CO [2-des-Hydroxy-Peloruside A] | 120 nM |  | 
2 | CC[C@H](/C=C(/C)[C@@H]1C[C@@H](OC)C[C@H](O)C(C)(C)[C@@]2(O)O[C@@H](C[C@@H](OC)CC(=O)O1)C[C@@H](O)[C@H]2O)CO [2-des-Hydroxy-7-des-methoxy-7-hydroxy-Peloruside A] | 320 nM |  | 
3 | (+)-Peloruside A [reference compound] |  | 10 nM | IC50 value, antitumor activity against P388 murine leukemia cells [2]: 0.01 µg/mL
4 | epi-C-11 Peloruside A |  | 10 nM | 
5 | CC[C@H](/C=C(/C)[C@@H]1C[C@@H](OC)C[C@H](O)C(C)(C)C(=O)[C@H](O)[C@H](OC)C[C@@H](O)C[C@@H](OC)CC(=O)O1)CO [Open Chain Isomer Of 2-Des-Hydroxy-Peloruside A] |  |  | IC50 ([1]; Mus musculus, P388): > 5000 nM
